# Results taken from paper PMC5218480 (PLoS ONE, 2017).
# Test system: MV-4-11 cells
# Test: Gene expression microarray analysis (Affymetrix PrimeView) and GSEA
# Assay type: cell-based, human
# Design: RFU PODN (11730768_x_at) / Fold change /veh PODN (11730768_x_at) / RFU LINC00158 (11744669_a_at) / Fold change /veh LINC00158 (11744669_a_at) / RFU DUSP10 (11751237_a_at) / Fold change /veh DUSP10 (11751237_a_at) / RFU ID3 (11757404_x_at) / Fold change /veh ID3 (11757404_x_at) / RFU PLEKHG5 (11737974_s_at) / Fold change /veh PLEKHG5 (11737974_s_at) / RFU LRRC4B (11730491_at) / Fold change /veh LRRC4B (11730491_at) / RFU GIMAP4 (11747438_a_at) / Fold change /veh GIMAP4 (11747438_a_at) / RFU KRT8 (11758183_x_at) / Fold change /veh KRT8 (11758183_x_at) / RFU CNN1 (11734310_a_at) / Fold change /veh CNN1 (11734310_a_at) / RFU VPS37D (11726825_at) / Fold change /veh VPS37D (11726825_at) / RFU C10orf10 (11716522_x_at) / Fold change /veh C10orf10 (11716522_x_at) / RFU KIR2DL2 /// KIR2DL4 /// KIR2DL5A /// KIR2DL5B /// KIR2DS1 /// KIR2DS2 /// KIR2DS3 /// KIR2DS4 /// KIR3DL3 /// KIR3DL3 /// KIR3DS1 (11738374_at) / Fold change /veh KIR2DL2 /// KIR2DL4 /// KIR2DL5A /// KIR2DL5B /// KIR2DS1 /// KIR2DS2 /// KIR2DS3 /// KIR2DS4 /// KIR3DL3 /// KIR3DL3 /// KIR3DS1 (11738374_at) / RFU C1QL1 (11718748_at) / Fold change /veh C1QL1 (11718748_at) / RFU TMPRSS4 (11747572_a_at) / Fold change /veh TMPRSS4 (11747572_a_at) / RFU HAMP (11756126_x_at) / Fold change /veh HAMP (11756126_x_at) / RFU RNFT2 (11725882_a_at) / Fold change /veh RNFT2 (11725882_a_at) / RFU NR4A2 (11747474_a_at) / Fold change /veh NR4A2 (11747474_a_at) / RFU ABCC12 (11746883_a_at) / Fold change /veh ABCC12 (11746883_a_at) / RFU TMEM136 (11760407_x_at) / Fold change /veh TMEM136 (11760407_x_at) / RFU CLDN22 /// WWC2 (11732394_at) / Fold change /veh CLDN22 /// WWC2 (11732394_at) / RFU HLA-DPB1 (11760878_x_at) / Fold change /veh HLA-DPB1 (11760878_x_at) / RFU SPINT1 (11716480_a_at) / Fold change /veh SPINT1 (11716480_a_at) / RFU GAP43 (11754022_s_at) / Fold change /veh GAP43 (11754022_s_at) / RFU A4GNT (11735810_at) / Fold change /veh A4GNT (11735810_at) / RFU PRB3 (11715151_x_at) / Fold change /veh PRB3 (11715151_x_at) / RFU TUBB4B (11761932_at) / Fold change /veh TUBB4B (11761932_at) / RFU CAPN14 (11732068_a_at) / Fold change /veh CAPN14 (11732068_a_at) / RFU TMCC2 (11721928_a_at) / Fold change /veh TMCC2 (11721928_a_at) / RFU IRGQ (11745062_a_at) / Fold change /veh IRGQ (11745062_a_at) / RFU FAM174B (11720279_a_at) / Fold change /veh FAM174B (11720279_a_at) / RFU TMPRSS4 (11748680_a_at) / Fold change /veh TMPRSS4 (11748680_a_at) / RFU FAM212B (11763350_a_at) / Fold change /veh FAM212B (11763350_a_at) / RFU PLEKHG5 (11743358_a_at) / Fold change /veh PLEKHG5 (11743358_a_at) / RFU ZSCAN30 (11745921_a_at) / Fold change /veh ZSCAN30 (11745921_a_at) / RFU CMKLR1 (11741424_a_at) / Fold change /veh CMKLR1 (11741424_a_at) / RFU LOC101060620 /// MAPK8IP1 (11723275_at) / Fold change /veh LOC101060620 /// MAPK8IP1 (11723275_at) / RFU SPTSSB (11747773_x_at) / Fold change /veh SPTSSB (11747773_x_at) / RFU PRSS12 (11739890_at) / Fold change /veh PRSS12 (11739890_at) / RFU BIN1 (11741810_x_at) / Fold change /veh BIN1 (11741810_x_at) / RFU WNT11 (11732464_a_at) / Fold change /veh WNT11 (11732464_a_at) / RFU C10orf10 (11716521_a_at) / Fold change /veh C10orf10 (11716521_a_at) / RFU C5orf56 (11738089_at) / Fold change /veh C5orf56 (11738089_at) / RFU CYB561 (11721691_x_at) / Fold change /veh CYB561 (11721691_x_at) / RFU ANKRD19P (11752326_a_at) / Fold change /veh ANKRD19P (11752326_a_at) / RFU OR2T12 /// OR2T33 /// OR2T8 (11738714_s_at) / Fold change /veh OR2T12 /// OR2T33 /// OR2T8 (11738714_s_at) / RFU VCAN (11748164_a_at) / Fold change /veh VCAN (11748164_a_at) / RFU JSRP1 (11732532_at) / Fold change /veh JSRP1 (11732532_at) / RFU KRTAP10-11 (11738290_x_at) / Fold change /veh KRTAP10-11 (11738290_x_at) / RFU MYO3A (11730013_a_at) / Fold change /veh MYO3A (11730013_a_at) / RFU EBF3 (11725865_a_at) / Fold change /veh EBF3 (11725865_a_at) / RFU CAMK2N1 (11719241_x_at) / Fold change /veh CAMK2N1 (11719241_x_at) / RFU C5orf56 (11738088_a_at) / Fold change /veh C5orf56 (11738088_a_at) / RFU OLFML3 (11715873_a_at) / Fold change /veh OLFML3 (11715873_a_at) / RFU LOC100653217 /// NTM (11731650_a_at) / Fold change /veh LOC100653217 /// NTM (11731650_a_at) / RFU MAPK11 (11762145_a_at) / Fold change /veh MAPK11 (11762145_a_at) / RFU FIZ1 (11724087_x_at) / Fold change /veh FIZ1 (11724087_x_at) / RFU OASL (11726364_x_at) / Fold change /veh OASL (11726364_x_at) / RFU SOX15 (11748057_x_at) / Fold change /veh SOX15 (11748057_x_at) / RFU CD79A (11719716_a_at) / Fold change /veh CD79A (11719716_a_at) / RFU HIST1H1D (11736915_at) / Fold change /veh HIST1H1D (11736915_at) / RFU CASKIN2 (11723855_a_at) / Fold change /veh CASKIN2 (11723855_a_at) / RFU LOC730098 (11760151_x_at) / Fold change /veh LOC730098 (11760151_x_at) / RFU OR4N2 (11742367_at) / Fold change /veh OR4N2 (11742367_at) / RFU PRRT2 (11749266_a_at) / Fold change /veh PRRT2 (11749266_a_at) / RFU SNX32 (11753110_a_at) / Fold change /veh SNX32 (11753110_a_at) / RFU CDHR5 (11726645_a_at) / Fold change /veh CDHR5 (11726645_a_at) / RFU RCAN1 (11760418_a_at) / Fold change /veh RCAN1 (11760418_a_at) / RFU FAM167A (11723789_a_at) / Fold change /veh FAM167A (11723789_a_at) / RFU FAM26E (11764081_at) / Fold change /veh FAM26E (11764081_at) / RFU ISYNA1 (11749810_s_at) / Fold change /veh ISYNA1 (11749810_s_at) / RFU ACY1 (11761880_at) / Fold change /veh ACY1 (11761880_at) / RFU 11764098_at / Fold change /veh 11764098_at / RFU SAMD14 (11745864_x_at) / Fold change /veh SAMD14 (11745864_x_at) / RFU NPB (11741838_a_at) / Fold change /veh NPB (11741838_a_at) / RFU TMPRSS6 (11731388_a_at) / Fold change /veh TMPRSS6 (11731388_a_at) / RFU KRTAP10-2 (11738614_at) / Fold change /veh KRTAP10-2 (11738614_at) / RFU ARHGAP8 /// PRR5-ARHGAP8 (11727945_x_at) / Fold change /veh ARHGAP8 /// PRR5-ARHGAP8 (11727945_x_at) / RFU KRTAP5-7 /// NADSYN1 (11734609_at) / Fold change /veh KRTAP5-7 /// NADSYN1 (11734609_at) / RFU RASL12 (11751679_a_at) / Fold change /veh RASL12 (11751679_a_at) / RFU CDKN2B (11736163_a_at) / Fold change /veh CDKN2B (11736163_a_at) / RFU PRF1 (11729649_at) / Fold change /veh PRF1 (11729649_at) / RFU, ZNF638 /// ZNF638-IT1 / Fold change vs veh, ZNF638 /// ZNF638-IT1 / RFU, PANK3 / Fold change vs veh, PANK3 / RFU, SH3YL1 / Fold change vs veh, SH3YL1 / RFU, ZEB2 / Fold change vs veh, ZEB2 / RFU, NRIP1 / Fold change vs veh, NRIP1 / RFU, PTTG1IP / Fold change vs veh, PTTG1IP / RFU, CAPN2 / Fold change vs veh, CAPN2 / RFU, MED14 / Fold change vs veh, MED14 / RFU, SNORA58 / Fold change vs veh, SNORA58 / RFU, C1orf63 / Fold change vs veh, C1orf63 / RFU, LRRFIP1 / Fold change vs veh, LRRFIP1 / RFU, NDUFAF7 / Fold change vs veh, NDUFAF7 / RFU, SLC12A2 / Fold change vs veh, SLC12A2 / RFU, IBTK / Fold change vs veh, IBTK / RFU, ESF1 / Fold change vs veh, ESF1 / Fold change vs veh, TMEM50B / RFU, TAOK1 / Fold change vs veh, TAOK1 / RFU, ACBD3 / Fold change vs veh, ACBD3 / RFU, TMA16 / Fold change vs veh, TMA16 / RFU, RWDD3 / Fold change vs veh, RWDD3 / RFU, BCAT1 / Fold change vs veh, BCAT1 / RFU, EDEM3 / Fold change vs veh, EDEM3 / RFU, TMEM33 / Fold change vs veh, TMEM33 / RFU, WDR75 / Fold change vs veh, WDR75 / RFU, AHCTF1 / Fold change vs veh, AHCTF1 / RFU, TFRC / Fold change vs veh, TFRC / RFU, ZDHHC17 / Fold change vs veh, ZDHHC17 / RFU, NOM1 / Fold change vs veh, NOM1 / RFU, ARL8B / Fold change vs veh, ARL8B / RFU, ZBTB11 / Fold change vs veh, ZBTB11 / RFU, TAMM41 / Fold change vs veh, TAMM41 / RFU, KIAA1704 /// LOC100996395 / Fold change vs veh, KIAA1704 /// LOC100996395 / RFU, ING1 / Fold change vs veh, ING1 / RFU, TRMT61B / Fold change vs veh, TRMT61B / RFU, FUBP3 / Fold change vs veh, FUBP3 / RFU, TP53 / Fold change vs veh, TP53 / RFU, TNKS2 / Fold change vs veh, TNKS2 / RFU, ZFP14 / Fold change vs veh, ZFP14 / RFU, ACTR2 / Fold change vs veh, ACTR2 / RFU, PPP3R1 / Fold change vs veh, PPP3R1 / RFU, PIK3R1 / Fold change vs veh, PIK3R1 / RFU, HNRNPA1 / Fold change vs veh, HNRNPA1 / RFU, RNF170 / Fold change vs veh, RNF170 / RFU, ZNF28 / Fold change vs veh, ZNF28 / RFU, RNGTT / Fold change vs veh, RNGTT / RFU, OGT / Fold change vs veh, OGT / RFU, BRD1 / Fold change vs veh, BRD1 / RFU, MARS / Fold change vs veh, MARS / RFU, ZNF655 / Fold change vs veh, ZNF655 / RFU, FAHD1 / Fold change vs veh, FAHD1 / RFU, BDP1 / Fold change vs veh, BDP1 / RFU, LRRCC1 / Fold change vs veh, LRRCC1 / RFU, ARID1A / Fold change vs veh, ARID1A / RFU, ZNF146 / Fold change vs veh, ZNF146 / RFU, ZNF330 / Fold change vs veh, ZNF330 / RFU, GPN3 / Fold change vs veh, GPN3 / RFU, C9orf123 / Fold change vs veh, C9orf123 / RFU, N4BP2L2 / Fold change vs veh, N4BP2L2 / RFU, ARFIP1 / Fold change vs veh, ARFIP1 / RFU, FAM179B / Fold change vs veh, FAM179B / RFU, BCL10 / Fold change vs veh, BCL10 / RFU, UHRF1BP1L / Fold change vs veh, UHRF1BP1L / RFU, BET1 / Fold change vs veh, BET1 / RFU, CNOT2 / Fold change vs veh, CNOT2 / RFU, ZNF268 / Fold change vs veh, ZNF268 / Fold change vs veh, ZNF507 / RFU, DGCR2 / Fold change vs veh, DGCR2 / RFU, WDSUB1 / Fold change vs veh, WDSUB1 / Fold change vs veh, HSP90B1 /// MIR3652 / RFU, ADSS / Fold change vs veh, ADSS / RFU, GK / Fold change vs veh, GK / RFU, ZNF148 / Fold change vs veh, ZNF148 / RFU, TAF9 / Fold change vs veh, TAF9 / RFU, SLC1A5 / Fold change vs veh, SLC1A5 / RFU, SLMO2 / Fold change vs veh, SLMO2 / RFU, ABCC4 / Fold change vs veh, ABCC4 / RFU, LOC101060439 /// RAP1B / Fold change vs veh, LOC101060439 /// RAP1B / RFU, RFX7 / Fold change vs veh, RFX7 / RFU, GTPBP10 / Fold change vs veh, GTPBP10 / RFU, CNEP1R1 / Fold change vs veh, CNEP1R1 / RFU, BIVM-ERCC5 /// ERCC5 / Fold change vs veh, BIVM-ERCC5 /// ERCC5 / RFU, ILF3 / Fold change vs veh, ILF3 / RFU 11762660_at / Fold change /veh 11762660_at / RFU VCAN (11757783_s_at) / Fold change /veh VCAN (11757783_s_at) / RFU DDX43 (11728927_at) / Fold change /veh DDX43 (11728927_at) / RFU KRT8 (11758188_x_at) / Fold change /veh KRT8 (11758188_x_at) / RFU NKD1 (11759106_at) / Fold change /veh NKD1 (11759106_at) / RFU SRD5A1 (11742802_a_at) / Fold change /veh SRD5A1 (11742802_a_at) / RFU TPSAB1 /// TPSB2 (11721975_s_at) / Fold change /veh TPSAB1 /// TPSB2 (11721975_s_at) / RFU GSTM3 (11746129_a_at) / Fold change /veh GSTM3 (11746129_a_at) / RFU IL23R (11737362_x_at) / Fold change /veh IL23R (11737362_x_at) / RFU TMEM51 (11727254_a_at) / Fold change /veh TMEM51 (11727254_a_at) / RFU PIWIL2 (11732686_x_at) / Fold change /veh PIWIL2 (11732686_x_at) / RFU ORM1 (11744905_x_at) / Fold change /veh ORM1 (11744905_x_at) / RFU CCDC152 (11743942_at) / Fold change /veh CCDC152 (11743942_at) / RFU ECM1 (11717891_a_at) / Fold change /veh ECM1 (11717891_a_at) / RFU IL23R (11748794_a_at) / Fold change /veh IL23R (11748794_a_at) / RFU TNFAIP8L3 (11732012_x_at) / Fold change /veh TNFAIP8L3 (11732012_x_at) / RFU MBOAT4 (11741988_at) / Fold change /veh MBOAT4 (11741988_at) / RFU 11764193_at / Fold change /veh 11764193_at / RFU TMEM53 (11763286_at) / Fold change /veh TMEM53 (11763286_at) / RFU MAGEB2 (11727129_at) / Fold change /veh MAGEB2 (11727129_at) / RFU TMEM200A (11744735_a_at) / Fold change /veh TMEM200A (11744735_a_at) / RFU CCDC152 (11751479_a_at) / Fold change /veh CCDC152 (11751479_a_at) / RFU FAM211A (11726209_a_at) / Fold change /veh FAM211A (11726209_a_at) / RFU RGS16 (11746705_a_at) / Fold change /veh RGS16 (11746705_a_at) / RFU VCAN (11755009_s_at) / Fold change /veh VCAN (11755009_s_at) / RFU RHOB (11743442_s_at) / Fold change /veh RHOB (11743442_s_at) / RFU RGS16 (11720943_a_at) / Fold change /veh RGS16 (11720943_a_at) / RFU RGS16 (11720944_at) / Fold change /veh RGS16 (11720944_at) / RFU, VPS4B / Fold change vs veh, VPS4B / RFU, CREB1 / Fold change vs veh, CREB1 / RFU, DNAJC13 / Fold change vs veh, DNAJC13 / RFU, GNAQ / Fold change vs veh, GNAQ / RFU, CDK5R1 / Fold change vs veh, CDK5R1 / RFU, ZRANB3 / Fold change vs veh, ZRANB3 / RFU, CUL4A / Fold change vs veh, CUL4A / RFU, CCNY / Fold change vs veh, CCNY / RFU, UFL1 / Fold change vs veh, UFL1 / RFU, COG3 / Fold change vs veh, COG3 / RFU, DIAPH2 / Fold change vs veh, DIAPH2 / RFU, SKA2 / Fold change vs veh, SKA2 / RFU, AFF3 / Fold change vs veh, AFF3 / RFU, LMF1 / Fold change vs veh, LMF1 / RFU, IPO11 / Fold change vs veh, IPO11 / RFU, DFFB / Fold change vs veh, DFFB / RFU, FOXP1 / Fold change vs veh, FOXP1 / RFU, CARD8 / Fold change vs veh, CARD8 / RFU, STRN3 / Fold change vs veh, STRN3 / RFU, ADK / Fold change vs veh, ADK / RFU, RASSF2 / Fold change vs veh, RASSF2 / RFU, WIPF1 / Fold change vs veh, WIPF1 / RFU, LARP1B / Fold change vs veh, LARP1B / RFU, RASA1 / Fold change vs veh, RASA1 / RFU, RB1 / Fold change vs veh, RB1 / RFU, PPFIA1 / Fold change vs veh, PPFIA1 / RFU, MAT2A / Fold change vs veh, MAT2A / RFU, CCT5 / Fold change vs veh, CCT5 / RFU, WDR92 / Fold change vs veh, WDR92 / RFU, CUX1 / Fold change vs veh, CUX1 / RFU, TTC7A / Fold change vs veh, TTC7A / RFU, TMEM135 / Fold change vs veh, TMEM135 / RFU, DEPTOR / Fold change vs veh, DEPTOR / RFU, CPM / Fold change vs veh, CPM / RFU, DNAJB6 / Fold change vs veh, DNAJB6 / RFU, CACNA2D3 / Fold change vs veh, CACNA2D3 / RFU, DTX4 / Fold change vs veh, DTX4 / RFU, TFCP2 / Fold change vs veh, TFCP2 / RFU, GMCL1 /// GMCL1P1 / Fold change vs veh, GMCL1 /// GMCL1P1 / RFU, AEBP2 / Fold change vs veh, AEBP2 / RFU, SNHG1 /// SNORD22 /// SNORD25 /// SNORD26 /// SNORD27 /// SNORD28 /// SNORD29 /// SNORD31 / Fold change vs veh, SNHG1 /// SNORD22 /// SNORD25 /// SNORD26 /// SNORD27 /// SNORD28 /// SNORD29 /// SNORD31 / Fold change (Aza/veh), C12orf56 (ProbeSet 11735607_a_at) / Fold change (ACY-1035/veh), C12orf56 (ProbeSet 11735607_a_at) / Fold change (Aza/veh), FGFR1OP (ProbeSet 11751329_s_at) / Fold change (ACY-1035/veh), FGFR1OP (ProbeSet 11751329_s_at) / Fold change (Aza/veh), VPS36 (ProbeSet 11739960_a_at) / Fold change (ACY-1035/veh), VPS36 (ProbeSet 11739960_a_at) / RFU SYPL1 (11715823_x_at) / Fold change /veh SYPL1 (11715823_x_at) / RFU IGFBP7 (11715501_s_at) / Fold change /veh IGFBP7 (11715501_s_at) / RFU REEP3 (11722064_at) / Fold change /veh REEP3 (11722064_at) / RFU IGLL1 (11728026_x_at) / Fold change /veh IGLL1 (11728026_x_at): dose or concentration left out as unconfirmed
# Conditions: ProbeSet 11758440_s_at; LIST B
smiles,measurement,value
Nc1ccc(-c2cccs2)cc1NC(=O)c1ccc2c(c1)cc(C1CC1)n2CCN1CCOCC1 [ACY-1035],"Fold change vs veh, RFX7",0.90
